# Read-outs that look alike come from different tables or passages of the source.
# Tested on: α7 integrin promoter
# Assay: muscle cell-based assay: α7βgal+/− myoblasts/myotubes, LacZ reporter, β-galactosidase cleavage of FDG
# Parameters: species or system mouse; Results in α7+/− β-galactosidase assay: scale not given here
# In short: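 Primary α7βgal+/− mouse myoblasts (LacZ knocked into α7 integrin exon 1, promoter retained), differentiated; promoter activity read as β-galactosidase conversion of non-fluorescent FDG to fluorescein. Hits followed by dose-response, western analysis and myostatin counterscreen.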
# [1] = Mus musculus; Table 12; log of AC50, given with negative sign; unit of AC50 not given; read-out: Fit Log AC50 (converted)
# [2] = Mus musculus; read-out: Max Response [%]
# [3] = Table 12; fitted activity at zero concentration
# [4] = Table 12 Compound data; concentration-response curve fit
# [5] = Mus musculus; given as log AC50 (negative values); read-out: Fit LogAC50 (converted)
# [6] = curve class number, key not given
# [7] = curve fit, activity at zero concentration
SMILES,"Results in a α7+/− β-galactosidase assay, Myotubes, 0.5 uM (Myotubes; compound at 0.5 uM)","Results in a α7+/− β-galactosidase assay, Myotubes, 1 uM (Myotubes; compound at 1 uM)","Results in a α7+/− β-galactosidase assay, Myotubes, 5 uM (Myotubes; compound at 5 uM)","Results in a α7+/− β-galactosidase assay, Myotubes, 10 uM (Myotubes; compound at 10 uM)","Results in a α7+/− β-galactosidase assay, Myotubes, 20 uM (Myotubes; compound at 20 uM)","Results in a α7+/− β-galactosidase assay, Myotubes, 40 uM (Myotubes; compound at 40 uM)",AC50 [1] [µM],Fit HillSlope (Table 12; curve fit),Fit Zero Activity [%] [3] [%],Fit Curve Class (Table 12; key not given),Score [4],also measured
Cc1[nH]c2ccc(F)cc2c1CCN(Cc1ccco1)/C(S)=N/C(C)(C)C [drawing 431],−0.02866,−0.1703,−0.1851,−0.06955,−0.543,−0.807,–,–,–,–,–,–
COc1ccc(N2CCCC2)c(NC(=O)c2ccc([N+](=O)[O-])o2)c1 [Compound 46],–,–,–,–,–,–,7.94,1.01,−35.6022,2.1,46,Emax [2]: 156%
Cc1cccc(Cn2cnc3c(nnn3Cc3ccc(Cl)cc3)c2=O)c1 [drawing 450],0.04908,−0.01328,−0.09823,−0.3107,−0.1707,−0.1775,–,–,–,–,–,–
COc1cc2c(cc1NC(=O)Cc1ccc(C)cc1)oc1ccccc12 [Compound 5],–,–,–,–,–,–,1.12,2.5334,−5.0637,1.1,86,Activity at 38.30 μM [%] ** (38.30 μM): 87.1241%; Emax [2]: 87.1%
CC1(C)Cc2ccccc2-c2nc3n(c(=O)c21)CCS3 [drawing 380],0.09354,0.08602,−0.04079,−0.05719,−0.329,−0.421,–,–,–,–,–,–
COc1ccc(CN2CCNC(=O)C2CC(=O)NCCc2c[nH]c3ccccc23)c(OC)c1 (stereo not drawn) [Compound 208],–,–,–,–,–,–,–,–,–,–,–,EC50 [5]: 10 µM; Score (Table 12 compound data): 42; Fit Curve Class [6]: 2.2; Fit HillSlope (curve fit): 3.1925; Fit Zero Activity [%] [7]: −9.1413%
CC(C)c1ccc(NC(=O)CN2C(=O)c3ccccc3S2(=O)=O)cc1 [drawing 399],−0.1815,−0.0433,0.02954,−0.2491,−0.1353,−0.1392,–,–,–,–,–,–
O=Cc1cn(Cc2ccc(F)cc2Cl)c2ccccc12 [Compound 209],–,–,–,–,–,–,–,–,–,–,–,"Fit Curve Class: 2.1; Fit HillSlope: 4.095; Fit Zero Activity [%]: 12.1779%; Score: 42; EC50 (Mus musculus, read-out: Fit LogAC50 (converted)): 15.8 µM"
Cn1cc(CN(CCO)Cc2cccs2)c(-c2ccccc2F)n1 [drawing 315],0.06985,0.09322,0.1949,0.1433,−0.3105,−0.2586,–,–,–,–,–,–
CCCC1C(c2cc(OC)c(OC)c(OC)c2)=Nc2c1c(=O)[nH]c(=O)n2Cc1ccccc1 (stereo not drawn) [drawing 469],−0.09222,−0.1313,−0.484,−0.34,−0.2089,−0.2856,–,–,–,–,–,–
C=CCn1c(COc2ccc(Cl)cc2)nnc1SCc1ccc(C#N)cc1 [Compound 220],–,–,–,–,–,–,–,–,–,–,–,EC50 [5]: 11.2 µM; Score (Table 12 compound data): 42; Fit Curve Class [6]: 2.1; Fit HillSlope (curve fit): 3.2975; Fit Zero Activity [%] [7]: 8.1688%
COc1ccc(CNC(=O)C2CCCN(S(=O)(=O)c3c(C)noc3/C=C/N(C)C)C2)cc1 (stereo not drawn) [drawing 371],0.1862,0.2675,−0.1068,−0.1252,−0.1996,−0.2682,–,–,–,–,–,–
O=C1Nc2ccccc2/C1=C/c1c[nH]cn1,–,–,–,–,–,–,–,–,–,–,–,"Results in a α7+/− β-galactosidase assay, Myotubes, 0.5 uM: −0.09659; Results in a α7+/− β-galactosidase assay, Myotubes, 1 uM: 0.04801; Results in a α7+/− β-galactosidase assay, Myotubes, 5 uM: 0.2975; Results in a α7+/− β-galactosidase assay, Myotubes, 10 uM: 0.1108; Results in a α7+/− β-galactosidase assay, Myotubes, 20 uM: 0.1916; Results in a α7+/− β-galactosidase assay, Myotubes, 40 uM: 0.1189"
O=C(N/N=C/c1c[nH]c2ccccc12)c1cc(Cl)ccc1O [drawing 617],–,–,–,–,–,–,–,–,–,–,–,"Results in α7+/− β-galactosidase assay (Myoblasts, 0.5 uM): −0.1174; Results in α7+/− β-galactosidase assay (Myoblasts, 1 uM): −0.2374; Results in α7+/− β-galactosidase assay (Myoblasts, 5 uM): 0.2235; Results in α7+/− β-galactosidase assay (Myoblasts, 10 uM): −0.05174; Results in α7+/− β-galactosidase assay (Myoblasts, 20 uM): −0.06378; Results in α7+/− β-galactosidase assay (Myoblasts, 40 uM): −0.0655"
O=C(Cn1cccc1C(=O)c1ccccc1)NCCCc1ccccc1 [Compound 43],–,–,–,–,–,–,3.98,0.9,0,2.1,47,Emax [2]: 131%
CC1CCN(S(=O)(=O)c2ccc(S(=O)(=O)N3CCCC3)cc2)CC1 [Compound 72],–,–,–,–,–,–,8.91,2.3332,−2.3089,2.1,44,–
O=C(Nc1ccc(N2CCN(C(=O)c3ccccc3F)CC2)cc1)c1cncc(Br)c1 [Compound 144],–,–,–,–,–,–,–,–,–,–,–,EC50 [5]: 12.6 µM; Score (Table 12 compound data): 42; Fit Curve Class [6]: 2.1; Fit HillSlope (curve fit): 4.095; Fit Zero Activity [%] [7]: 9.7776%
CS(=O)(=O)c1ccc(Cl)c(NC(=O)CSc2nncn2-c2ccccc2)c1 [Compound 55],–,–,–,–,–,–,12.6,4.9549,−18.4203,2.1,45,–
CCCN(C(=O)c1ccc(S(=O)(=O)N2CCCC2)cc1)C1CCS(=O)(=O)C1 (stereo not drawn) [drawing 352],−0.1044,−0.1728,−0.01555,0.1537,−0.08104,−0.06466,–,–,–,–,–,–
O=C(Nc1ccc(Cl)cc1N1CCOCC1)C1CCCCC1 [Compound 53],–,–,–,–,–,–,7.08,0.8,−11.267,2.1,45,Activity at 0.307 μM [%] ** (0.307 μM): 0%; Emax [2]: 119%
COC(=O)C(=O)C/C(=N/Nc1ncnc2ccccc12)c1ccc(Cl)cc1 [Compound 18],–,–,–,–,–,–,10,4.9549,8.7984,2.1,84,Activity at 38.30 μM [%] ** (38.30 μM): 1767.43%; Fit Infinite Activity [%] (Table 12; fitted activity at infinite concentration): 1760.36%
O=C(CNC(=O)c1cccc(F)c1)N/N=C/c1cc(Br)ccc1OCc1ccccc1 [drawing 311],−0.0152,0.1201,0.07121,0.000591,−0.3123,−0.2936,–,–,–,–,–,–
CCOc1ccccc1NC(=O)c1cccc2c1C(=O)N(C1CCCCC1)C2 [Compound 15],–,–,–,–,–,–,3.16,1.6259,−16.1195,1.1,84,Emax [2]: 73.6%
N#Cc1nc(COc2ccccc2)oc1N1CCCC1 [drawing 674],–,–,–,–,–,–,–,–,–,–,–,"Results in α7+/− β-galactosidase assay (Myoblasts, 0.5 uM): 0.189; Results in α7+/− β-galactosidase assay (Myoblasts, 1 uM): 0.0825; Results in α7+/− β-galactosidase assay (Myoblasts, 5 uM): −0.1343; Results in α7+/− β-galactosidase assay (Myoblasts, 10 uM): −0.1744; Results in α7+/− β-galactosidase assay (Myoblasts, 20 uM): −0.09766; Results in α7+/− β-galactosidase assay (Myoblasts, 40 uM): −0.3419"
O=C(NCc1ccccc1)C(c1c(F)cccc1Cl)N(C(=O)c1csnn1)C1CC1 (stereo not drawn) [drawing 638],–,–,–,–,–,–,–,–,–,–,–,"Results in α7+/− β-galactosidase assay (Myoblasts, 0.5 uM): 0.05089; Results in α7+/− β-galactosidase assay (Myoblasts, 1 uM): −0.04686; Results in α7+/− β-galactosidase assay (Myoblasts, 5 uM): −0.06939; Results in α7+/− β-galactosidase assay (Myoblasts, 10 uM): −0.1188; Results in α7+/− β-galactosidase assay (Myoblasts, 20 uM): 0.4333; Results in α7+/− β-galactosidase assay (Myoblasts, 40 uM): −0.4316"
Cc1cc(NC(=O)c2ccc(Cl)cc2Cl)no1 [Compound 19],–,–,–,–,–,–,1.41,1.3437,−28.8963,1.1,84,Emax [2]: 52.1%
C/C(=N\NC(=O)c1cc(C)oc1C)c1ccc2ccccc2c1 [drawing 444],−0.05394,−0.1247,0.2514,−0.05957,−0.1231,−0.2807,–,–,–,–,–,–
Cc1nn(C(C)(C)C)c(C)c1/C=N/OC(=O)Nc1ccc(Cl)c(Cl)c1 [Compound 32],–,–,–,–,–,–,–,–,–,–,–,"Curve Description: Complete; Fit Curve Class: 1.1; Fit HillSlope: 2.1211; Fit Zero Activity [%]: −28.5623%; Score: 83; AC50 (Mus musculus, read-out: Fit Log AC50 (converted)): 2.82 µM; Emax (Mus musculus, read-out: Max Response [%]): 59.8%"
NS(=O)(=O)c1ccc(NC(=O)Nc2ccc(Cl)cc2)cc1 [Compound 202],–,–,–,–,–,–,–,–,–,–,–,Fit Curve Class: 2.2; Fit HillSlope: 1.8617
